# Patent US7105307B2, “Compositions and methods for screening for modulators of enzymatic activity” (Cyclacel, Ltd., priority 1997, dated 2006)
# Where no end group is shown, it is not given here. rhodamine = not defined here
# Columns and labels:
# PKA [1] = test: Timecourse of phosphorylation of peptides by PKA (32P-ATP); format: biochemical; settings: 0.2 mM ATP, pH 7.0
# Protocol: Peptides (0.01–1.0 μM) are phosphorylated by purified c-PKA in 50 mM Histidine buffer pH 7.0, 5 mM MgSO4, 1 mM EGTA, 0.1–1.0 μM c-PKA, and 0.2 mM [^32P] γ-ATP (specific activity ˜2Bq/pmol) at 30–37° C. for periods of time ranging from 0 to 60 minutes. Where the chemistry of the peptide is appropriate (i.e. having a basic charge) the phosphopeptide is captured on a cation exchange filter paper (e.g. phosphocellulose P81 paper; Whatman), and reactants are removed by extensive washing in 1% phosphoric acid (see Casnellie, 1991, Methods Enzymol., 200: 115–120). Alternatively, phosphorylation of samples is terminated by the addition of SDS-sample buffer (Laemmli, 1970, Nature, 227: 680–685) and the samples analysed by SDS-PAGE electrophoresis, autoradiography and scintillation counting of gel pieces.
# A timecourse of phosphorylation of these peptides by PKA was run in 50 mM histidine/HCl (pH 7.0), 5 mM MgSO4, 5 mM NaF, 0.05 mM EGTA, 120 mM KCl with 0.2 mM ATP (30.9 cpm/pmol ^32P-ATP) and 0.5 μM PKA. […] Zip4T is also phosphorylated, but at a slower rate, with full phosphorylation achieved in 30 minutes in this assay. In this assay, the difference in cpm recovered between the Zip4 peptides and PL919Y was due to the difference in recovery of these peptides on P81 paper; however, a plateau was taken to indicate full phosphorylation.
# (§1) A second set of timecourses of phosphorylation was performed on Zip4S using PKA and Ca^2+/Calmodulin-dependent Protein Kinase (CaMKII), together with positive and negative controls for CaMKII (used to confirm that the crude preparation of CaMKII had the expected characteristics of that enzyme). PKA phosphorylation was performed in 50 mM histidine/HCl (pH 7.0), 5 mM MgSO4, 5 mM NaF, 0.05 mM EGTA, 120 mM KCl with 0.2 mM ATP (39.72 cpm/pmol ^32P-ATP) and 0.25 μM PKA. CaMKII phosphorylation was performed in 50 mM histidine/HCl (pH 7.0), 5 mM MgSO4, 5 mM NaF, 120 mM KCl, 0.5 mM Ca^2+, 0.037 mg/ml calmodulin with 0.2 mM ATP (39.72 cpm/pmol ^32P-ATP) and 10% crude CaMKII. In the Ca^2+-free experiment, Ca^2+ was replaced by 0.05 mM EGTA. […] Such specificity of a modification site included in a polypeptide comprising a coiled-coil is critical for use of the invention in an intracellular environment.
# [2] = Circular dichroism spectra and thermal denaturation of coiled-coil peptides; format: physicochemical
# Protocol: The circular dichroism (measured in units of ellipticity) of proteins at 222 nm provides a measure of the amount of α-helix present in the structure, with a large, negative ellipticity indicting a high level of helicity. The coiled-coil has a distinctive α-helical CD spectrum with minima at 222 nm and 208 nm (O'Shea et al., 1989, Science, 243: 538–542). […] In all experiments described herein, peptide concentration was determined by tyrosine absorbance at 280 nm in 6M GuHCl. […] It is clear that this leucine zipper peptide began to unfold at around 35° C. and was completely unfolded by 70° C.
# As in Example 1, circular dichroism was used to assess the coiled-coil structure of the Zip4 polypeptides and the disruption of that structure by phosphorylation. […] This was confirmed by the CD spectra of Zip4S and Zip4SP at 1° C. (FIG. 12).
# The coiled-coil motif has a characteristic CD spectrum. As described above, measurement of circular dichroism is useful to distinguish monomeric polypeptides from oligomers and to assess the stability of the structure present, although the technique cannot give information regarding the number of monomers making up the coiled-coil structure. […] Importantly, these peptides shown only have 4.5 leucine zipper heptads, and the incomplete nature of the final heptad is likely to compromise the stability of the coiled-coil structure.
# partner peptide = test: FRET between fluorescein- and rhodamine-labeled coiled-coil peptides (association); format: binding; settings: emission at 516 nm
# Protocol: Peptides were then labeled using a method adapted from one known in the art (Hermanson, 1997, Bioconjugate Techniques, Academic Press). 20 mM fluorescein iodoacetamide (FAM) in DMSO and 0.23 mM peptide in 20 mM TES buffer, pH 7.0 were prepared. These were mixed in a molar ratio of 0.9:1 (peptide:label) and incubated at 4° C. in the dark for a minimum of 2 hours. Initially, this method was also applied to labelling with rhodamine maleimide at a ratio of 0.9:2; however, in other experiments, good labelling has been obtained using rhodamine iodoacetamide at a ratio of 0.9:1. Labelling was assessed by reverse phase HPLC (C18 column; solvent A: H2O/0.1% TFA; solvent B: acetonitrile/0.1% TFA) and MALDI-TOF mass spectrometry.
# This was accompanied by an increase in fluorescence detected in the rhodamine emission region (not shown).
# (§2) Fluorescence was used to report on the phosphorylation status of these peptides (FIG. 13). […] No loss of FRET was observed on addition of PKA in the absence of ATP (data not shown).
# PKA [3] = test: FRET report of phosphorylation of labeled peptides by PKA; format: biochemical; settings: Zip4SF with Zip4SR, ATP present
# Protocol: Donor and acceptor fluorophore-labeled polypeptides comprising coiled-coils (molar equivalents of fluorophore-labeled polypeptide or molar excess of acceptor-labeled polypeptide) are first mixed (if the two coiled-coils are present on separate polypeptides). Samples are analyzed in a fluorimeter using excitation wavelengths relevant to the donor fluorescent moiety and emission wavelengths relevant to both the donor and acceptor moieties. […] Typically, measurements are performed at 0–37° C. as a function of time following the addition of the modifying enzyme (and, optionally, a modulator or candidate modulator of function for that enzyme, as described below) to the system in 50 mM histidine pH 7.0, 120 mM KCl, 5 mM MgSO4, 5 mM NaF, 0.05 mM EGTA and 0.2 mM ATP. The assay may be performed at a higher temperature if that temperature is compatible with the enzyme(s) under study.
# as §2
# Calculation of the ratio of fluorescence output is important, particularly for in vivo applications, thereby avoiding error due to high local concentrations of reporter in the system and enhancing the ability to observe meaningful change.
# [4] = system: Ca2+/Calmodulin-dependent Protein Kinase (CaMKII); test: Timecourse of phosphorylation by CaMKII (32P-ATP); format: biochemical; settings: 10% crude CaMKII, 0.5 mM Ca2+, 0.2 mM ATP
# Protocol: as §1
# Zip4SF = molecular target: T1, Zip4SF (not fully specified; fluorescent donor label (fluorescein, by analogy with Zip3F) on the single Cys); test: FRET, emission spectra
# T1 peptide: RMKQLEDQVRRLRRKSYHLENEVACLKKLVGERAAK
# [5] = molecular target: the molecule itself; test: circular dichroism, self-association
molecule,measurement,setting,value
"R MKQLEDQ VRRLRRK TYHLENE VACLKKL VGERAAK (RMKQLEDQVRRLRRKTYHLENEVACLKKLVGERAAK) [Zip4T, 29]","phosphorylation by PKA (substrate quality, rate)",PKA [1]; 0.5 μM PKA,slower rate
same,time to full phosphorylation by PKA,PKA [1]; 0.5 μM PKA,30 min
same,relative thermostability (thermal denaturation by CD),[2]; same conditions as Zip3,more stable than was Zip4S
Zip4SF: Zip4S labeled with fluorescein (FRET donor) (RMKQLEDQVRRLRRKSYHLENEVACLKKLVGERAAK; also: labeled with fluorescein (site not given here)),FRET upon addition of Zip4SR,partner peptide,loss of emission at 516 nm
same,emission at 516 nm on addition of PKA (loss of FRET),PKA [3],returned to above the level produced by Zip4SF alone
"R MKQLEDQ VRRLRRK SYHLENE VACLKKL VGERAAK (RMKQLEDQVRRLRRKSYHLENEVACLKKLVGERAAK) [Zip4S, 28]",phosphorylation by PKA (extent),PKA [1]; 0.25 μM PKA,complete phosphorylation
same,"phosphorylation by PKA (substrate quality, rate)",PKA [1]; 0.5 μM PKA,good substrate
same,phosphorylation by CaMKII,[4],unable to phosphorylate
Zip4SP: enzymatically phosphorylated Zip4S (RMKQLEDQVRRLRRKSYHLENEVACLKKLVGERAAK; also: enzymatically phosphorylated (site not given here)),folding state in thermal melting/denaturation (ellipticity at 222 nm),[2]; from starting temperature of 1° C.,unfolded polypeptide in solution
"RMKQLEDQVRRLRRKSYHLENEVAC(rhodamine)LKKLVGERAAK (reading uncertain, the labelling of Zip4S itself is not spelled out) [Zip4SR]",binding result,Zip4SF,binds
RRIRRASIDKVEELKSKNYCLENEVARLKKLVGER (Initial unsuccessful reporter peptide; also called Zip2s) [Zip 2],binding result,[5],binds
HMKQLEDKVEELLSKNYCLENEVRRLRRASFSLQ (Initial unsuccessful reporter peptide) [Zip 1],binding result,[5],binds
